Counter-ions that a name gives are not always drawn. Bounds are passed on as bounds.

For this test, the target named is TRPC6 (Homo sapiens (Human), UniProt Q9Y210). Nature of the test: High throughput screening assay: fluorescent calcium (Fluo4/AM) assay of TRPC6 channel activation by GSK1702934A in HEK293/TREx cells. The note with it: HEK293/TREx cells stably transfected with TRPC6; agonist GSK1702934A; 7 concentrations 20 μM to 0.027 μM, triplicate. It counts as cell-based. The source says: This screening assay measures TRPC6 (transient receptor potential cation channel, subfamily C, member 6) ion channel activation via addition either of the commercially available DAG ligand analogue OAG (1-oleoyl-2-acetyl-sn-glycerol) or of the TRPC6 agonist 1-[1-(4,5,6,7,8-pentahydrocyclohepta[2,1-d]thiophen-2-ylcarbonyl)-4-piperidyl]-3-hydrobenzimidazol-2-one (GSK1702934A). The assay utilizes a FLIPR fluorescent calcium sensor 4-(6-Acetoxymethoxy-2,7-difluoro-3-oxo-9-xanthenyl)-4′-methyl-2,2′-(ethylenedioxy)dianiline-N,N,N′,N′-tetraacetic acid tetrakis(acetoxymethyl) ester (Fluo4/AM) […]. Changes (increases) in intracellular membrane calcium concentration potential as measured by the fluorescent signal increase during membrane depolarization provide a measurement of channel activity.
Sequence of TRPC6 (Q9Y210 whole entry, species assumed): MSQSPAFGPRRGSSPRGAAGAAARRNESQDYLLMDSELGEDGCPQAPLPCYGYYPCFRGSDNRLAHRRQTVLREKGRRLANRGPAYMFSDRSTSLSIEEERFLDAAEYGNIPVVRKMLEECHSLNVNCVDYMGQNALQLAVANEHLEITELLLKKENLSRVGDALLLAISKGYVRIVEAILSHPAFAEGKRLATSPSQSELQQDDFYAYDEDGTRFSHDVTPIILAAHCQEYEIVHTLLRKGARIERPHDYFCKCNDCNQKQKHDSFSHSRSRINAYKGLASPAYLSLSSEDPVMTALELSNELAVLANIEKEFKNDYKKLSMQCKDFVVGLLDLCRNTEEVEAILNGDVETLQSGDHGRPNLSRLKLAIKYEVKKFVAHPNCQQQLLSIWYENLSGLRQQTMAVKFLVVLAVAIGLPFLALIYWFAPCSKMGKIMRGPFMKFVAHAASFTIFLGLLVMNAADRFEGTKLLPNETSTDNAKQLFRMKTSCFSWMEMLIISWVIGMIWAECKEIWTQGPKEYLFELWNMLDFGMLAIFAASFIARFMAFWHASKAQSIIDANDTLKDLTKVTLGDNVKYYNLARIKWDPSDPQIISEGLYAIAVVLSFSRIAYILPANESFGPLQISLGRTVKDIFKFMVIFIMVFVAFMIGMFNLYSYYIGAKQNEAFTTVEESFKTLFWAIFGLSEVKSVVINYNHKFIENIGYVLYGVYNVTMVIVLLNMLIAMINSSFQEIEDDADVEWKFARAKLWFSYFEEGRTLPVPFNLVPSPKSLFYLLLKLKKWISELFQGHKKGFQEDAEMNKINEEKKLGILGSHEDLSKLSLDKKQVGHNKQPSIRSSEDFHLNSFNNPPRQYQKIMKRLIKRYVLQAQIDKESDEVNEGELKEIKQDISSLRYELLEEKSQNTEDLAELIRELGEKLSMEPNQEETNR
The commercially available HEK293/TREx line (Invitrogen) was stably transfected with a TRPC6 construct and screened by conventional calcium imaging to find clones with TRPC6 expression following stimulation with 1 μg/ml tetracycline. These cells were maintained in the growth medium recommended by the manufacturer supplemented with 100 μg/ml hygromycin to promote retention of the TRPC6 construct. After growing to near confluency, cells were plated at a density of ^˜35,000 cells/well in 384 well CellBind plates (Corning) in the presence of 1 μg/ml tetracycline, and allowed to grow for 20-30 hrs. A nearly confluent monolayer resulted. Growth media was removed from the wells and cells were then loaded with […] Fluo4/AM diluted in Ringer's Solution (6.5 g NaCl, 0.42 g KCl, 0.25 g CaCl2) and 0.2 g of sodium bicarbonate; pH 7.4) supplemented with 1% Pluronic F-127 to a final concentration of 0.5 μM and incubated for 60 min, at room temperature. Dye solution was then removed from the cells by inverting plates with a sharp flick, and replaced with 25 μl Ringer's. Following ^˜0.5 hour for recovery from loading, cells were assayed using the Hamamatsu FDSS 6000 system, which permitted illumination at 485 nm. Frames were acquired at a rate of 0.2 Hz. During the assay, the plates were continuously vortexed, with pipette mixing of wells following addition of each reagent. For the screening assay, 26 μl of a diluted compound stock (at 50 μM) was added to each well for 2 minutes following the collection of a short (4 frame) baseline. 13 μl of agonist solution consisting of 125 nM GSK1702934A diluted in high-Ca2+Ringer solution (containing 90 mm Ca2+) was then added to each well, achieving a final concentration of 20 mm Ca2+ and 10 μM test compound. Data was collected for ^˜3 minutes following addition of high Ca2+Ringer. The fluorescent ratio for each well was divided by the initial fluorescent intensity for that well and the overall response was determined by averaging the fluorescent ratio of the last 4 frames acquired during the experiment excepting the final frame. Negative and Positive controls were included on each plate. Negative controls wells consisted of HEK293/TREx TRPC6 cells exposed to assay buffer and agonist solution, but no test compound. Positive control consisted of wells consisted of HEK293/TREx TRPC6 cells exposed to 25 μM 3-[(2-chlorophenoxy)methyl]phenyl piperidyl ketone (Chembridge) diluted in Ringer's solution and agonist solution. These controls defined zero percent and 100 percent block respectively, and intensity of each well was normalized to these values.
Compounds were tested in triplicate at all concentrations. Standard software was used to fit IC50 curves.
Take `COc1cc(C(=O)N2CCN(c3ccc(N)nc3)CC2)ncc1Oc1ccc(F)cc1` [Compound 13, [4-(6-Amino-pyridin-3-yl)-piperazin-1-yl]-[5-(4-fluoro-phenoxy)-4-methoxy-pyridin-2-yl]-methanone]: the IC50 amounted to 27 nM.
Take `CCCOc1cnc(C(=O)N2CCC(c3ccc(N)nn3)CC2)cc1OC` [Compound 76, [4-(6-Amino-pyridazin-3-yl)-piperidin-1-yl]-(4-methoxy-5-propoxy-pyridin-2-yl)-methanone]: the IC50 came out at 1800 nM.
To `COc1cc(C(=O)N2CCC(c3ccc(N)nc3)CC2)ncc1Oc1ccccc1` [Compound 3, (6-Amino-3′,4′,5′,6′-tetrahydro-2′H-[3,4′]bipyridinyl-1′-yl)-(4-methoxy-5-phenoxy-pyridin-2-yl)-methanone] belongs less than 27 nM; to `COc1cc(C(=O)N2CCC(c3cnc(N)cc3OC)CC2)ncc1Oc1ccc(F)cc1` [Compound 4, (6-Amino-4-methoxy-3′,4′,5′,6′-tetrahydro-2′H-[3,4′]bipyridinyl-1′-yl)-[5-(4-fluoro-phenoxy)-4-methoxy-pyridin-2-yl]methanone], less than 27 nM.
The value for `COc1cc(C(=O)N2CCN(c3cnc(N)cc3OC)CC23CC3)ncc1Oc1ccccc1` [Compound 8, [7-(6-Amino-4-methoxy-pyridin-3-yl)-4,7-diaza-spiro[2.5]oct-4-yl]-(4-methoxy-5-phenoxy-pyridin-2-yl)-methanone] was 27 nM; that for `COc1cc(C(=O)N2CCC(c3cnc(N)cc3OC)CC2)ncc1OCC(C)C(F)(F)F` (single isomer, unassigned) [Compound 94a, 4-Methoxy-5-(1-{4-methoxy-5-[3,3,3-trifluoro-2-methylpropoxy]pyridine-2-carbonyl}piperidin-4-yl)-pyridin-2-amine] was 343 nM.
Take `COc1cc(C(=O)N2CCC(c3ccc(N)nn3)CC2)ncc1Oc1ccc(OC(C)C)cc1` [Compound 6, [4-(6-Amino-pyridazin-3-yl)-piperidin-1-yl]-[5-(4-isopropoxy-phenoxy)-4-methoxy-pyridin-2-yl]-methanone]: the IC50 stood at 27 nM.
The value for `COc1cc(C(=O)N2CCC(c3cnc(N)cc3C)CC2)ncc1Oc1ccc(F)cc1` [Compound 2, (6-Amino-4-methyl-3′,4′,5′,6′-tetrahydro-2′H-[3,4′]bipyridinyl-1′-yl)-[5-(4-fluoro-phenoxy)-4-methoxy-pyridin-2-yl]-methanone] was less than 27 nM.
`COc1cc(C(=O)N2CCC(c3cnc(N)cc3OC)CC2)ncc1OCc1ccccc1F` [Compound 19, (6-Amino-4-methoxy-3′,4′,5′,6′-tetrahydro-2′H-[3,4′]bipyridinyl-1′-yl)-[5-(2-fluoro-benzyloxy)-4-methoxy-pyridin-2-yl]-methanone]: the IC50 was determined as 32 nM.
Turning to `COc1cc(C(=O)N2CCC(c3cnc(N)cc3OC)CC2)ncc1Oc1ccccc1` [Compound 23, (6-Amino-4-methoxy-3′,4′,5′,6′-tetrahydro-2′H-[3,4′]bipyridinyl-1′-yl)-(4-methoxy-5-phenoxy-pyridin-2-yl)-methanone], the concentration for half-maximal inhibition (IC50) stood at 54 nM.
For `COc1cc(C(=O)N2CCN(c3ccc(N)nc3)CC2)ncc1Oc1ccccc1` [Compound 15, [4-(6-Amino-pyridin-3-yl)-piperazin-1-yl]-(4-methoxy-5-phenoxy-pyridin-2-yl)-methanone], the IC50 worked out at 27 nM.
With `COc1cc(C(=O)N2CCC(c3cc(OC)c(N)nn3)CC2)ncc1Oc1ccc(F)cc1` [Compound 11, [4-(6-Amino-5-methoxy-pyridazin-3-yl)-piperidin-1-yl]-[5-(4-fluoro-phenoxy)-4-methoxy-pyridin-2-yl]-methanone], the IC50 is 27 nM.
The value for `COc1cc(C(=O)N2CCC(c3cnc(N)cc3OC)CC2)ncc1OCc1ccccc1` [Compound 43, (6-Amino-4-methoxy-3′,4′,5′,6′-tetrahydro-2′H-[3,4′]bipyridinyl-1′-yl)-(5-benzyloxy-4-methoxy-pyridin-2-yl)-methanone] was 140 nM; that for `COc1cc(C(=O)N2CCC(c3cnc(N)cc3OC)CC2)ncc1OCc1ccc(F)cc1` [Compound 32, (6-Amino-4-methoxy-3′,4′,5′,6′-tetrahydro-2′H-[3,4′]bipyridinyl-1′-yl)-[5-(4-fluoro-benzyloxy)-4-methoxy-pyridin-2-yl]-methanone] was 130 nM.
Consider `COc1cc(C(=O)N2CCC(c3cnc(N)cc3OC)CC2)ncc1OC(C)C` [Compound 72, (6-Amino-4-methoxy-3′,4′,5′,6′-tetrahydro-2′H-[3,4′]bipyridinyl-1′-yl)-(5-isopropoxy-4-methoxy-pyridin-2-yl)-methanone], for which the IC50 was 910 nM.
The value for `COc1cc(C(=O)N2CCN(c3ccc(N)nc3)C[C@@H]2CO)ncc1Oc1ccccc1` [Compound 81, [(R)-4-(6-Amino-pyridin-3-yl)-2-hydroxymethyl-piperazin-1-yl]-(4-methoxy-5-phenoxy-pyridin-2-yl)-methanone] was 71 nM; that for `COc1cc(C(=O)N2CCC(c3cnc(N)cc3OC)CC2)ncc1OC[C@H]1C[C@H](C(F)(F)F)C1` [Compound 92, TFA salt of 4-Methoxy-5-[1-(4-methoxy-5-{[3-(trifluoromethyl)-cyclobutyl]methoxy}-pyridine-2-carbonyl)piperidin-4-yl]pyridin-2-amin] was 635 nM.
The value for `COc1cc(C(=O)N2CCC(c3cnc(N)cc3OC)CC2)ncc1OCC1CCC1` [Compound 53, (6-Amino-4-methoxy-3′,4′,5′,6′-tetrahydro-2′H-[3,4′]bipyridinyl-1′-yl)-(5-cyclobutylmethoxy-4-methoxy-pyridin-2-yl)-methanone] was 210 nM.
To `COc1cc(C(=O)N2CCC(c3cnc(N)cc3OC)CC2)ncc1OCC(C)C` [Compound 39, 4-Methoxy-5-{1-[4-methoxy-5-(2-methylpropoxy)pyridine-2-carbonyl]piperidin-4-yl}-pyridin-2-amine trifluoroacetic acid] belongs 170 nM; to `COc1cc(C(=O)N2CCC(c3nnc(N)cc3C)CC2)ncc1Oc1ccccc1` [Compound 31, 6-[1-(4-Methoxy-5-phenoxypyridine-2-carbonyl)piperidin-4-yl]-5-methylpyridazin-3-amine trifluoroacetic acid], 120 nM.
Consider `COc1cc(C(=O)N2CCN(c3cnc(N)cc3C)C[C@@H]2CO)ncc1Oc1ccccc1` [Compound 18, [(R)-4-(6-Amino-4-methyl-pyridin-3-yl)-2-hydroxymethyl-piperazin-1-yl]-(4-methoxy-5-phenoxy-pyridin-2-yl)-methanone], for which the IC50 was 31 nM.
Turning to `COc1cc(C(=O)N2CCC(c3nnc(N)cc3C)CC2)ncc1Oc1ccc(C(F)(F)F)cc1` [Compound 90, 6-(1-{4-Methoxy-5-[4-(trifluoromethyl)phenoxy]pyridine-2-carbonyl}piperidin-4-yl)-5-methylpyridazin-3-amine trifluoroacetic acid], the IC50 came to 364 nM.
To `COc1ccc(Oc2cnc(C(=O)N3CCC(c4nnc(N)cc4OC)CC3)cc2OC)cc1` [Compound 66, [4-(6-Amino-4-methoxy-pyridazin-3-yl)-piperidin-1-yl]-[4-methoxy-5-(4-methoxy-phenoxy)-pyridin-2-yl]-methanone] belongs 840 nM.
For the molecule `COc1cc(C(=O)N2CCC(c3cnc(N)cc3OC)CC2)ncc1OCCC1CC1` [Compound 48, (6-Amino-4-methoxy-3′,4′,5′,6′-tetrahydro-2′H-[3,4′]bipyridinyl-1′-yl)-[5-(2-cyclopropyl-ethoxy)-4-methoxy-pyridin-2-yl]-methanone], the IC50 turned out to be 250 nM.
The value for `COc1ccc(Oc2cnc(C(=O)N3CCN(c4ccc(N)nc4)CC3)cc2OC)cc1` [Compound 12, [4-(6-Amino-pyridin-3-yl)-piperazin-1-yl]-[4-methoxy-5-(4-methoxy-phenoxy)-pyridin-2-yl]-methanone] was 27 nM.

(Values after patent US10800757B2, “Inhibitors of TRPC6” (Boehringer Ingelheim International GmbH, priority 2017, dated 2020).)
